The values below come from patent US20150038545A1, “HYDROXYPHENYL PYRROLE COMPOUNDS CONTAINING AN HYDROXAMIC ACID AS HDAC INHIBITORS AND MEDICINAL APPLICATIONS THEREOF” (UNIVERSIDAD DEL PAÍS VASCO, priority 2011, published 2015).

Broadly, the IC50 is the concentration at which inhibition is half-maximal.

The target of one assay is T1, Human HDAC4 (Homo sapiens, UniProt P56524).
T1 construct: Amino acids 627-1085 with N-terminal GST tag, MW=75.2 kDa; GST (N); purchased BioMol, Hamburg, Germany
The experiment in a line: In vitro HDAC4 inhibition, fluorogenic peptide assay. It is filed as biochemical. The note with it: for IC50: read-out: IC50 (nM) of enzyme activity HDAC4. The procedure:
All HDAC assays were performed using acetylated AMC-labeled peptide substrate: • Substrate for isoforms HDAC1, 2, 3, 4, 5, 6, 7, 9, 10, 11 and HeLa nuclear extract assays: Acetylated fluorogenic peptide from p53 residues 379-382 (RHKKAc) (BioMol. Cat. # KI-104). • Substrate for HDAC8 assays: Acetylated fluorogenic peptide from p53 residues 379-382 (RHKAcKAc) (BioMol. Cat. # KI-178).
Enzymes: • HDAC1 assay: 75 nM Human HDAC1 (GenBank Accession No. NM_004964): Full length with C-terminal GST tag, MW=79.9 kDa, expressed by baculovirus expression system in Sf9 cells (BioMol. Cat. # SE-456). • HDAC2 assay: 5 nM Human HDAC2 (GenBank Accession No. Q92769): Full length with C-terminal His tag, MW=60 kDa, expressed by baculovirus expression system in Sf9 cells (BioMol. Cat. # SE-500). • HDAC3 assay: 2.3 nM Human HDAC3/NcoR2 (GenBank Accession No. NM_003883 for HDAC3, GenBank Accession No.NM_006312 for NcoR2): Complex of human HDAC3, full length with C-terminal His tag, MW=49.7 kDa, and human NCOR2, N-terminal GST tag, MW=39 kDa, co-expressed in baculovirus expression system (BioMol. Cat. # SE-507). • HDAC4 assay: 266 nM Human HDAC4 (GenBank Accession No. NM_006037): Amino acids 627-1085 with N-terminal GST tag, MW=75.2 kDa, expressed in baculovirus expression system (BioMol, Hamburg, Germany). • HDAC5 assay: 588 nM Human HDAC5 (GenBank Accession No. NM_001015053): Full length with Nterminal GST tag, MW=150 kDa, expressed by baculovirus expression system in Sf9 cells (BioMol, Hamburg, Germany). • HDAC6 assay: 13 nM Human HDAC6 (GenBank Accession No. BC069243): Full length with N-terminal GST tag, MW=159 kDa, expressed by baculovirus expression system in Sf9 cells (BioMol. Cat. # SE-508). • HDAC7 assay: 962 nM Human HDAC7 (GenBank Accession No. AY302468): Amino acids 518-end with N-terminal GST tag, MW=78 kDa, expressed in baculovirus expression system (BioMol, Hamburg, Germany). • HDAC8 assay: 119 nM Human HDAC8 (GenBank Accession No. NM018486): Full length, MW=42 kDa, expressed in an E. coli expression system (BioMol. […]
The reactions were carried out in a 96-well microplate for fluorometry in a 50 μl reaction volume. […] The reaction was allowed to develop for 45 minutes at 30° C. with 5% CO2; then the fluorescent signal was measured with an excitation wavelength at 360 nm and an emission wavelength at 460 nm in a microplate-reading fluorometer (GeminiXS; Molecular Devices, Sunnyvale, Calif.). […] IC50 was calculated by fitting the experimental data to a dose-response curve. […]

In a further assay the test system is 786-O. The experiment in a line: Cancer cell growth inhibition (CellTiter-Glo), 786-O. It is filed as cell-based, Human. The note with it: Homo sapiens, 786-0, Kidney Cancer, 72 h treatment. On the procedure:
(§1) Cell culture-based assays were used to evaluate the ability of compounds of the invention to inhibit cancer cell growth.
(§2) Cells were obtained from the American Type Culture Collection (ATCC). Cells were cultured at 37° C. with 5% CO2 in the appropriate growth medium (see table below), and harvested respectively during the logarithmic growth period and counted with hemocytometer. The cell viability was examined by trypan blue exclusion. Cell concentrations were adjusted to 5.56×10^4 cells/ml with respective medium.
(§3) Stock solutions of test compounds and positive drugs Doxorubicin (Zhejiang, Haizheng, China), Cisplatin (Nanjing Zhiyao, China) and Mitomycin (Zhejiang, Haizheng, China) were prepared in dimethyl sulphoxide (DMSO) or PBS at 20 mM.
(§4) In order to determine the IC50 for each compound, experiments were carried out in 96-well plates and the cell lines seeded at a density of 5,000 cells/well. […] All treatments were performed in triplicate. 10 μl of drug solution was added to each well and incubated for 72 hours. At the end of the incubation, 100 μl of the CellTiter-Glo Reagent were added to each well and the contents were mixed for 2 munites on an orbital shaker to induce cell lysis. The plate was incubated at room temperature for 10 minutes to stabilize luminiscent signal, and luminiscent was recorded. […] In order to calculate IC50 values, dose-responsive curves were fitted using nonlinear regression model with a sigmoidal dose response.

In the next assay the test system is OVCAR3. Kind of assay: Cancer cell growth inhibition (CellTiter-Glo), OVCAR3. Type of assay: cell-based, Human. The note with it: Homo sapiens, OVCAR-3; Ovarian Cancer, OVCAR3, 72 h treatment. The procedure: as §1, §2, §3, §4
For orientation: In ATP-based viability assays light output follows the ATP content of the culture.

The structures appear in SMILES notation.

T1 sequence (P56524 627-1084 limits assumed): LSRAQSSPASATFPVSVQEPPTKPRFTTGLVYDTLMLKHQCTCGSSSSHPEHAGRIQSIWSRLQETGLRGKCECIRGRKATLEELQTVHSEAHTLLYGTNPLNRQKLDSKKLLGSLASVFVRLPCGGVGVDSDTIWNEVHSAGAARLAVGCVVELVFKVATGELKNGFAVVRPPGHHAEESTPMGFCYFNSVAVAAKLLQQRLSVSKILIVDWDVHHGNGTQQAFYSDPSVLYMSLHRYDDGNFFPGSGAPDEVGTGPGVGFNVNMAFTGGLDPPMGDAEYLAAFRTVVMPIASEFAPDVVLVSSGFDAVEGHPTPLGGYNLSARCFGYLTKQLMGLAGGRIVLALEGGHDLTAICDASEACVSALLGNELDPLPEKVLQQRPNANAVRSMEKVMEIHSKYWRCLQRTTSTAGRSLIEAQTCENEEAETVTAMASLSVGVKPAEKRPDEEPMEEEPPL

As for `COc1ccc(-c2cc(-c3ccccc3)[nH]c2C(=O)NCCCCCC(=O)NO)cc1` [Compound A, N-[6-(hydroxyamino)-6-oxohexyl]-3-(4-methoxyphenyl)-5-phenyl-1H-pyrrole-2-carboxamide, reference compound], at Human HDAC4 (IC50 HDAC4/IC50 HDAC6), the “Selectivity against HDAC6 (IC50 HDACx/IC50 HDAC6) HDAC4” value was 91.9. The IC50 on Human HDAC4 is 1840 nM.

As for `O=C(CCCCCNC(=O)c1[nH]c(-c2ccccc2)cc1-c1ccc(O)cc1)NO` [Example 1, N-(6-(hydroxyamino)-6-oxohexyl)-3-(4-hydroxyphenyl)-5-phenyl-1H-pyrrole-2-carboxamide], the values for the IC50 with 786-O and with OVCAR3 were 3.28 µM and 3.3 µM, respectively.

Regarding `O=C(CCCCCNC(=O)c1[nH]c(-c2ccc(O)cc2)cc1-c1ccccc1)NO` [Example 2, N-(6-(hydroxyamino)-6-oxohexyl)-5-(4-hydroxyphenyl)-3-phenyl-1H-pyrrole-2-carboxamide], the IC50 with 786-O was 3.51 µM; in the assay with OVCAR3 it was 3.34 µM.

On to `O=C(CCCCCNC(=O)c1[nH]c(-c2ccc(O)cc2)cc1-c1ccoc1)NO` [Example 5, 3-(3-furyl)-N-(5-(hydroxycarbamoyl)pentyl)-5-(4-hydroxy-phenyl)-1H-pyrrole-2-carboxamide], for which the IC50 turned out to be 143 nM on Human HDAC4, 3.14 µM with 786-O and 1.05 µM in the assay on OVCAR3.

`O=C(CCCCCNC(=O)c1[nH]c(-c2ccc(O)cc2)cc1-c1ccsc1)NO` [Example 6, N-(5-(hydroxycarbamoyl)pentyl)-5-(4-hydroxyphenyl)-3-(3-thienyl)-1H-pyrrole-2-carboxamide]: the results for the IC50 on Human HDAC4, in the assay with 786-O and in the assay on OVCAR3 were 499 nM, 2.7 µM and 1.74 µM, respectively.
